# Results taken from US9890152B2 (Genentech, Inc., priority 2012, dated 2018).
# Where a name gives a salt, the structure may show the parent alone.
# Biological target: T1, EGFR del746-750 T790M (Homo sapiens, UniProt P00533, DEL746-750/T790M)
# T1 construct: purchased Carna Biosciences 08-528
# Experiment: EGFR del746-750 T790M biochemical assay (Caliper mobility shift)
# Conditions: 5 μM ATP, 30 min, room temperature; apparent Ki (Morrison) converted by Cheng-Prusoff, Km of ATP 2.1 μM; read-out: EGFR(T790M/d746-750) Ki
# T1 sequence (P00533 with tags, fused parts or gaps DEL746-750/T790M limits assumed): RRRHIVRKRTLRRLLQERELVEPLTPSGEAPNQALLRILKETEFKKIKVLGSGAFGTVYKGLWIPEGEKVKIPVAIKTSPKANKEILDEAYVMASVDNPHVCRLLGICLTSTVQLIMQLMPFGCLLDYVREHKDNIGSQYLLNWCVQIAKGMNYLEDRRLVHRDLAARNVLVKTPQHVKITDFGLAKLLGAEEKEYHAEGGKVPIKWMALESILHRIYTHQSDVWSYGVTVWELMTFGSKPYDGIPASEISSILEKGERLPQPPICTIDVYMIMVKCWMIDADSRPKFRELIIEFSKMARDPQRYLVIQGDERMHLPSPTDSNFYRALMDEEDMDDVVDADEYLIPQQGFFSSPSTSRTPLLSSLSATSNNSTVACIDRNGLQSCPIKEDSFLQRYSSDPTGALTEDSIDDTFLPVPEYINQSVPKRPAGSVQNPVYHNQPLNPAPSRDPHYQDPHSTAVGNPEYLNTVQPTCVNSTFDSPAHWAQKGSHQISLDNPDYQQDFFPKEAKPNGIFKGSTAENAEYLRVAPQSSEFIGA
row,Structure (SMILES),Ki [nM]
1,"CCC(C)n1cc(C(=O)NC2CCN(C3COC3)CC2)c2cnc(Nc3ccnc(N4CC[C@@H](OC)[C@@H](F)C4)n3)cc21 (single isomer, unassigned) [Example 325]",3.35
2,"CCC(C)n1cc(C(=O)NC2CCN(C3COC3)CC2)c2cnc(Nc3ccnc(N4CC[C@@H](OC)[C@@H](F)C4)n3)cc21 (single isomer, unassigned) [Example 326]",3.83
3,"CC[C@@H](C)n1cc(C(=O)NC2CCOCC2)c2cnc(Nc3ccnc(N4CC[C@H](OC)[C@H](F)C4)n3)cc21 (single isomer, unassigned) [Example 339]",4.12
4,"CC[C@H](C)n1cc(C(=O)NC2CCOCC2)c2cnc(Nc3ccnc(N4CC[C@H](OC)[C@H](F)C4)n3)cc21 (single isomer, unassigned) [Example 340]",3.33
5,"CCNC(=O)c1cn(C(C)CC)c2cc(Nc3ccnc(N4CC[C@@H](O)[C@@H](F)C4)n3)ncc12 (single isomer, unassigned) [Example 370]",4.02
6,"CCC(C)n1cc(C(=O)NC2CCOCC2)c2cnc(Nc3ccnc(N4CC[C@@H](OC)[C@@H](F)C4)n3)cc21 (single isomer, unassigned) [Example 375]",3.41
7,"C[C@H](n1c([C@@H](C)O)nc2cnc(Nc3ccnc(N4CC[C@@](C)(O)[C@@H](F)C4)n3)cc21)C(F)(F)F (single isomer, unassigned) [Example 621, (3R*,4S*)-3-Fluoro-1-{4-[2-((R)-1-hydroxyethyl)-1-((S)-2,2,2-trifluoro-1-methylethyl)-1H-imidazo[4,5-c]pyridin-6-ylamino]pyrimidin-2-yl}-4-methylpiperidin-4-ol]",21.7
8,"CC(n1cc(C(=O)NC2CCOCC2)c2cnc(Nc3ccnc(N4CC[C@@H](O)[C@@H](F)C4)n3)cc21)C(F)(F)F (single isomer, unassigned) [Example 639]",15
9,"CC(n1cc(C(=O)NC2CCOCC2)c2cnc(Nc3ccnc(N4CC[C@@H](O)[C@@H](F)C4)n3)cc21)C(F)(F)F (single isomer, unassigned) [Example 640]",15.3
10,"CCC(C)n1cc(C(=O)NC2CCOCC2)c2cnc(Nc3ccnc(-c4cnn(S(=O)(=O)C5CC5)c4)n3)cc21 (single isomer, unassigned; (+)) [Example 321, (+)-1-(sec-Butyl)-6-((2-(1-(cyclopropylsulfonyl)-1H-pyrazol-4-yl)pyrimidin-4-yl)amino)-N-(tetrahydro-2H-pyran-4-yl)-1H-pyrrolo[3,2-c]pyridine-3-carboxamide]",1.45
11,"COC1CCN(c2nccc(Nc3cc4c(cn3)c(C(=O)NCCn3ccnc3)cn4C(C)C)n2)CC1 [Example 63, N-(2-(1H-Imidazol-1-yl)ethyl)-1-isopropyl-6-(2-(4-methoxypiperidin-1-yl)pyrimidin-4-ylamino)-1H-pyrrolo[3,2-c]pyridine-3-carboxamide]",10.1
12,"Cc1nc2cnc(Nc3ccnc(-c4cnn(S(C)(=O)=O)c4)n3)cc2n1C(C)C [Example 91, 1-isopropyl-2-methyl-N-(2-(1-(methylsulfonyl)-1H-pyrazol-4-yl)pyrimidin-4-yl)-1H-imidazo[4,5-c]pyridin-6-amine]",3.5
13,"COC1CCN(c2nccc(Nc3cc4c(cn3)c(C(=O)NC3CCN(C)CC3)cn4C(C)C)n2)CC1 [Example 114, 1-isopropyl-6-((2-(4-methoxypiperidin-1-yl)pyrimidin-4-yl)amino)-N-(1-methylpiperidin-4-yl)-1H-pyrrolo[3,2-c]pyridine-3-carboxamide]",2.1
14,"COC1CCN(c2nccc(Nc3cc4c(cn3)c(C(=O)NC(C)C)cn4C(C)C)n2)CC1 [Example 120, N,1-diisopropyl-6-((2-(4-methoxypiperidin-1-yl)pyrimidin-4-yl)amino)-1H-pyrrolo[3,2-c]pyridine-3-carboxamide]",10.2
15,"COC1CCN(c2nccc(Nc3cc4c(cn3)c(C(=O)NCCO)cn4C(C)C)n2)CC1 [Example 121, N-(2-hydroxyethyl)-1-isopropyl-6-((2-(4-methoxypiperidin-1-yl)pyrimidin-4-yl)amino)-1H-pyrrolo[3,2-c]pyridine-3-carboxamide]",24.4
16,"CCN1CCN(C(=O)c2cn(C(C)C)c3cc(Nc4ccnc(N5CCC(OC)CC5)n4)ncc23)CC1 [Example 122, (4-ethylpiperazin-1-yl)(1-isopropyl-6-((2-(4-methoxypiperidin-1-yl)pyrimidin-4-yl)amino)-1H-pyrrolo[3,2-c]pyridin-3-yl)methanone]",100
17,"COC1CCN(c2nccc(Nc3cc4c(cn3)nc(C)n4C(C)(C)C)n2)CC1 [Example 163, (1-tert-butyl-2-methyl-1H-imidazo[4,5-c]pyridin-6-yl)-[2-(4-methoxypiperidin-1-yl)pyrimidin-4-yl]amine]",14.9
18,"Cc1cn(CCO)nc1-c1cn(C(C)C)c2cc(Nc3ccnc(-c4cnn(S(=O)(=O)C5CC5)c4)n3)ncc12 [Example 253, 2-(3-(6-(2-(1-(Cyclopropylsulfonyl)-1H-pyrazol-4-yl)pyrimidin-4-ylamino)-1-isopropyl-1H-pyrrolo[3,2-c]pyridin-3-yl)-4-methyl-1H-pyrazol-1-yl)ethanol]",1.82
19,"CCCC(C)n1c(CO)nc2cnc(Nc3ccnc(-c4cnn(S(=O)(=O)C5CC5)c4)n3)cc21 (stereo not drawn) [Example 265, (6-(2-(1-(Cyclopropylsulfonyl)-1H-pyrazol-4-yl)pyrimidin-4-ylamino)-1-(pentan-2-yl)-1H-imidazo[4,5-c]pyridin-2-yl)methanol]",5.63
20,"CC(C)n1c(CO)nc2cnc(Nc3ccnc(-c4cnn(S(=O)(=O)C5CC5)c4)n3)cc21 [Example 272, {6-[2-(1-Cyclopropanesulfonyl-1H-pyrazol-4-yl)pyrimidin-4-ylamino]-1-isopropyl-1H-imidazo[4,5-c]pyridin-2-yl}methanol]",2.12
21,"CO[C@H]1[C@@H]2CC[C@H]1CN(c1nccc(Nc3cc4c(cn3)nc(CO)n4C(C)C)n1)C2 [Example 273, (1-Isopropyl-6-((2-((1R,5R,8r)-8-methoxy-3-azabicyclo[3.2.1]octan-3-yl)pyrimidin-4-yl)amino)-1H-imidazo[4,5-c]pyridin-2-yl)methanol]",23.7

# Other lines, results leading:
row,Ki [nM],Structure (SMILES)
1,63.3,"CNc1nc2cnc(Nc3ccnc(N4CCC(OC)CC4)n3)cc2n1C(C)C [Example 6, 1-Isopropyl-N^6-[2-(4-methoxypiperidin-1-yl)pyrimidin-4-yl]-N^2-methyl-1H-imidazo[4,5-c]pyridine-2,6-diamine]"
2,417,"COC1CCN(c2nccc(Nc3cc4c(cn3)nc(CN(C)C)n4C(C)C)n2)CC1 [Example 9, (2-Dimethylaminomethyl-1-isopropyl-1H-imidazo[4,5-c]pyridin-6-yl)-[2-(4-methoxypiperidin-1-yl)pyrimidin-4-yl]amine formate salt]"
3,63.2,"COC1CCN(c2nccc(Nc3cc4c(cn3)nc(CO)n4C(C)C)n2)CC1 [Example 10, {1-Isopropyl-6-[2-(4-methoxypiperidin-1-yl)pyrimidin-4-ylamino]-1H-imidazo[4,5-c]pyridin-2-yl}methanol]"
4,98.4,"COc1nc2cnc(Nc3ccnc(N4CCC(OC)CC4)n3)cc2n1C(C)C [Example 11, (1-Isopropyl-2-methoxy-1H-imidazo[4,5-c]pyridin-6-yl)-[2-(4-methoxypiperidin-1-yl)pyrimidin-4-yl]amine]"
5,19.2,"CC(C)n1cnc2cnc(Nc3ccnc(N4CCc5[nH]ncc5C4)n3)cc21 [Example 12, (1-Isopropyl-1H-imidazo[4,5-c]pyridin-6-yl)-[2-(1,4,6,7-tetrahydropyrazolo[4,3-c]pyridin-5-yl)pyrimidin-4-yl]amine]"
6,8.2,"Cc1nc2cnc(Nc3ccnc(N4CCc5[nH]ncc5C4)n3)cc2n1C(C)C [Example 46, N-(2-(6,7-Dihydro-1H-pyrazolo[4,3-c]pyridin-5(4H)-yl)pyrimidin-4-yl)-1-isopropyl-2-methyl-1H-imidazo[4,5-c]pyridin-6-amine]"
7,1.2,COC1CCN(c2nccc(Nc3cc4c(cn3)c(-c3cc[nH]n3)cn4C(C)C)n2)CC1 [Example 64]
8,138,"CC(C)n1cnc2cnc(Nc3ccnc(N4CCCC(C(N)=O)C4)n3)cc21 (stereo not drawn) [Example 66, 1-(4-(1-isopropyl-1H-imidazo[4,5-c]pyridin-6-ylamino)pyrimidin-2-yl)piperidine-3-carboxamide]"
9,20.8,"CC(C)n1cnc2cnc(Nc3ccnc(NCC(C)(C)C(N)=O)n3)cc21 [Example 85, 3-(4-(1-isopropyl-1H-imidazo[4,5-c]pyridin-6-ylamino)pyrimidin-2-ylamino)-2,2-dimethylpropanamide]"
10,1.9,"CC(C)n1cnc2cnc(Nc3ccnc(-c4cnn(S(=O)(=O)C5CC5)c4)n3)cc21 [Example 97, N-(2-(1-(cyclopropylsulfonyl)-1H-pyrazol-4-yl)pyrimidin-4-yl)-1-isopropyl-1H-imidazo[4,5-c]pyridin-6-amine]"
11,18.9,"Cc1nc2cnc(Nc3ccnc(N4Cc5cn[nH]c5C(C)(C)C4)n3)cc2n1C(C)C [Example 111, N-(2-(7,7-dimethyl-6,7-dihydro-1H-pyrazolo[4,3-c]pyridin-5(4H)-yl)pyrimidin-4-yl)-1-isopropyl-2-methyl-1H-imidazo[4,5-c]pyridin-6-amine]"
12,55.5,"CC(C)n1cnc2cnc(Nc3ccnc(N4CCC5(CCCO5)CC4)n3)cc21 [Example 141, (1-Isopropyl-1H-imidazo[4,5-c]pyridin-6-yl)-[2-(1-oxa-8-azaspiro[4.5]dec-8-yl)pyrimidin-4-yl]amine formate salt]"
13,54.7,CC(C)n1cnc2cnc(Nc3ccnc(N4CC5CC4CC5F)n3)cc21 (stereo not drawn) [Example 191]
14,4.25,"Cc1nc2cnc(Nc3ccnc(-c4cnn(S(=O)(=O)C5CCNC5)c4)n3)cc2n1C(C)C (stereo not drawn) [Example 258, 1-Isopropyl-2-methyl-N-(2-(1-(pyrrolidin-3-ylsulfonyl)-1H-pyrazol-4-yl)pyrimidin-4-yl)-1H-imidazo[4,5-c]pyridin-6-amine]"
15,6.88,"COC1CCN(c2nccc(Nc3cc4c(cn3)nc(C)n4C(C)C3CC3)n2)CC1 (stereo not drawn) [Example 268, [1-(1-Cyclopropylethyl)-2-methyl-1H-imidazo[4,5-c]pyridin-6-yl]-[2-(4-methoxypiperidin-1-yl)pyrimidin-4-yl]amine]"
